# Source: US8106055B2, “Substituted amide compounds” (Gruenenthal GmbH, priority 2007, dated 2012)
# What was measured:
# [1] = molecular target: T1, human bradykinin 1 receptor (B1R) (Homo sapiens, UniProt P46663); experiment: Functional investigation on the human bradykinin 1 receptor (B1R), Ca2+ FLIPR assay in CHO K1 hB1R cells; format: cell-based; conditions: B1R antagonism human; test substance 10 μM; Ca2+ FLIPR, CHO K1 hB1R cells
# T1 construct: expressed in transfected cells; host or cells: CHO K1 cells
# T1 sequence (P46663 1-353): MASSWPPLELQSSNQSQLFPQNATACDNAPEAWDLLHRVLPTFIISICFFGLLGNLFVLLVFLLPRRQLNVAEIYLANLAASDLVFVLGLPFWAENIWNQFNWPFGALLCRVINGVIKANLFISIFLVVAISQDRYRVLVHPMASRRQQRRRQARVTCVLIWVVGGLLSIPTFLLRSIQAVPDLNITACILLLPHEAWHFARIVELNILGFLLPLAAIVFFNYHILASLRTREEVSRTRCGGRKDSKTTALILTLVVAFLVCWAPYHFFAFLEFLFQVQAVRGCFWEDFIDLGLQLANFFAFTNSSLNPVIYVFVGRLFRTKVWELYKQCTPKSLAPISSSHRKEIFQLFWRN
# In short: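 Peak Ca2+-dependent fluorescence in B1R-transfected CHO K1 cells measures antagonism of an EC80 agonist challenge given 10-20 min after compound. Agonist is Lys-Des-Arg9-bradykinin for human, Des-Arg9-bradykinin for rat receptor.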
# [2] = molecular target: T2, serotonin (5-HT) reuptake (Rattus norvegicus, UniProt P31652); experiment: Inhibition of serotonin (5HT) reuptake in synaptosomes from rat brain; format: biochemical; conditions: test concentration of 10 μM
# T2 construct: synaptosomes are freshly isolated from areas of the rat brain; from tissue; host or cells: rat brain synaptosomes (P2 fraction)
# In short: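 Compounds screened at 10 μM and reported as percent inhibition of serotonin uptake. Uptake measured in a freshly prepared P2 synaptosomal fraction from rat brain.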
# T2 sequence (P31652 whole entry): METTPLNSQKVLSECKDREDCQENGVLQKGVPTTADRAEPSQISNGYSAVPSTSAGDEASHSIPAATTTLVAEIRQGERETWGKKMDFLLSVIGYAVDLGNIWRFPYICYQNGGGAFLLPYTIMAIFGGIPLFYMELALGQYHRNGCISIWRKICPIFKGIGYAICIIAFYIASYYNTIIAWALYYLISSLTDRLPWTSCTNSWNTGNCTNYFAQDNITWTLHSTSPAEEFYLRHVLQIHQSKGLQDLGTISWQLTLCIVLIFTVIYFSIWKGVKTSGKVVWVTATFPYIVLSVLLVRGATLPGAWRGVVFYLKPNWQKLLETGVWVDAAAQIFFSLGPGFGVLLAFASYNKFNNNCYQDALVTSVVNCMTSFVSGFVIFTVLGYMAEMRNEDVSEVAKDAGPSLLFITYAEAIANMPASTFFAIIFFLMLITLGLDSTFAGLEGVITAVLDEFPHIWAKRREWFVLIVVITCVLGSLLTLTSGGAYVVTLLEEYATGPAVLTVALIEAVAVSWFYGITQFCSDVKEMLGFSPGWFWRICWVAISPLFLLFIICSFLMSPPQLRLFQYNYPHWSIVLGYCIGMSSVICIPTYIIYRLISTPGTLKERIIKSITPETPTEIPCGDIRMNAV
Compound,B1R Ant. h [10 μM] % Inhibition [1],"5-HT (inhibition of reuptake of serotonin, % inhibition) [2]"
COc1ccc(S(=O)(=O)N2CCCCC2COCC(=O)NC2CCC(C(c3ccc(F)cc3)N(C)C)CC2)cc1 (stereo not drawn) [Example 450],40%,90%
CN(C)C(CCc1ccccc1)C1CCC(CNC(=O)COC2CCCCC2N(C)S(=O)(=O)c2ccc(Cl)c(Cl)c2)CC1 (stereo not drawn) [Example 451],87%,84%
Cc1ccc(S(=O)(=O)N(C)CCOCC(=O)NCC2CCC(C(CCc3ccccc3)N(C)C)CC2)cc1 (stereo not drawn) [Example 452],37%,88%
COc1cc(C)c(S(=O)(=O)N2CCC(OCC(=O)NC3CCC(C(c4ccc(F)cc4)N(C)C)CC3)CC2)c(C)c1C (stereo not drawn) [Example 454],45%,95%
CN(C)C(c1ccc(F)cc1)C1CCC(CCNC(=O)COC2CCN(S(=O)(=O)c3ccc(Cl)cc3Cl)C2)CC1 (stereo not drawn) [Example 456],80%,88%
Cc1ccc(S(=O)(=O)N(C)CCOCC(=O)NCCC2CCC(C(c3ccc(F)cc3)N(C)C)CC2)cc1 (stereo not drawn) [Example 457],14%,90%
COc1cc(C)c(S(=O)(=O)N(C)CCOCC(=O)NCC2CCC(C(c3ccc(F)cc3)N(C)C)CC2)c(C)c1 (stereo not drawn) [Example 458],103%,85%
CN(C)C(c1ccc(Cl)cc1)C1CCC(CNC(=O)COCCN(C)S(=O)(=O)c2ccc(Cl)cc2Cl)CC1 (stereo not drawn) [Example 459],29%,68%
COc1ccc(S(=O)(=O)N(C)CCOCC(=O)NCCC2CCC(C(c3ccc(Cl)cc3)N(C)C)CC2)cc1 (stereo not drawn) [Example 460],50%,86%
COc1ccc(S(=O)(=O)N2CCCC2COCC(=O)NC2CCC(C(c3ccc(F)cc3)N(C)C)CC2)cc1 (stereo not drawn) [Example 461],13%,94%
COc1ccc(S(=O)(=O)N2CCCCC2COCC(=O)NCCC2CCC(C(c3ccc(F)cc3)N(C)C)CC2)cc1OC (stereo not drawn) [Example 462],−8%,90%
CN(C)C(c1ccc(F)cc1)C1CCC(NC(=O)COC2CCN(S(=O)(=O)c3ccccc3)C2)CC1 (stereo not drawn) [Example 463],−7%,97%
CN(C)C(c1ccc(F)cc1)C1CCC(CCNC(=O)COC2CCN(S(=O)(=O)c3ccc(Cl)cc3)C2)CC1 (stereo not drawn) [Example 464],−2%,88%
CN(C)C(c1ccc(F)cc1)C1CCC(CCNC(=O)COC2CCN(S(=O)(=O)c3cccc(C(F)(F)F)c3)C2)CC1 (stereo not drawn) [Example 466],7%,89%
COc1cc(C)c(S(=O)(=O)N2CCC(OCC(=O)NCCC3CCC(C(c4ccc(F)cc4)N(C)C)CC3)C2)c(C)c1C (stereo not drawn) [Example 467],67%,95%
COc1cc(C)c(S(=O)(=O)N2CCCC(OCC(=O)NCCC3CCC(C(c4ccc(F)cc4)N(C)C)CC3)C2)c(C)c1C (stereo not drawn) [Example 468],50%,95%
COc1ccc(S(=O)(=O)N2CCCCC2COCC(=O)NCC2CCC(C(CCc3ccccc3)N(C)C)CC2)cc1 (stereo not drawn) [Example 469],91%,87%
CN(C)C(c1ccc(F)cc1)C1CCC(CCNC(=O)COCCC2CCN(S(=O)(=O)c3ccccc3)CC2)CC1 (stereo not drawn) [Example 470],4%,82%
CN(C)C(c1ccc(Cl)cc1)C1CCC(CNC(=O)COC2CCN(S(=O)(=O)c3ccccc3)CC2)CC1 (stereo not drawn) [Example 471],7%,94%
COc1cc(C)c(S(=O)(=O)N2CCC(OCC(=O)NCCC3CCC(C(c4ccc(Cl)cc4)N(C)C)CC3)CC2)c(C)c1C (stereo not drawn) [Example 472],1%,95%
COc1cc(C)c(S(=O)(=O)N(CCOCC(=O)NCC2CCC(C(c3ccc(Cl)cc3)N(C)C)CC2)Cc2ccccc2)c(C)c1 (stereo not drawn) [Example 473],52%,64%

Compound,B1R Ant. h [10 μM] % Inhibition [1],"5-HT (inhibition of reuptake of serotonin, % inhibition) [2]"
COc1ccc(S(=O)(=O)N2CCCCC2COCC(=O)NCCC2CCC(C(c3ccc(Cl)cc3)N(C)C)CC2)c(OC)c1 (stereo not drawn) [Example 474],17%,88%
Cc1cc(C)c(S(=O)(=O)N2CCC(OCC(=O)NCC3CCC(C(CCc4ccccc4)N(C)C)CC3)C2)c(C)c1 (stereo not drawn) [Example 475],103%,87%
CN(C)C(c1cccc(F)c1)C1CCC(CNC(=O)COC2CCN(S(=O)(=O)c3ccccc3)CC2)CC1 (stereo not drawn) [Example 477],−16%,95%
CN(C)C(c1ccc(F)cc1)C1CCC(NC(=O)COCC2CCCN(S(=O)(=O)c3ccccc3)C2)CC1 (stereo not drawn) [Example 478],−3%,97%
CN(C)C(c1ccc(F)cc1)C1CCC(CCNC(=O)COCC2CCCN(S(=O)(=O)c3ccccc3)C2)CC1 (stereo not drawn) [Example 479],18%,97%
COc1cc(C)c(S(=O)(=O)N2CCC(OCC(=O)NCCC3CCC(C(c4ccc(F)cc4)N(C)C)CC3)CC2)c(C)c1C (stereo not drawn) [Example 480],23%,98%
COc1cc(C)c(S(=O)(=O)N2CCC(CCOCC(=O)NCC3CCC(C(c4ccc(F)cc4)N(C)C)CC3)CC2)c(C)c1C (stereo not drawn) [Example 481],9%,88%
COc1ccc(S(=O)(=O)N(C)CCOCC(=O)NCCC2CCC(C(c3ccc(F)cc3)N(C)C)CC2)cc1OC (stereo not drawn) [Example 484],−21%,96%
COc1cc(C)c(S(=O)(=O)N2CCCC(OCC(=O)NCCC3CCC(C(c4ccc(Cl)cc4)N(C)C)CC3)C2)c(C)c1C (stereo not drawn) [Example 485],5%,92%
CN(C)C(c1ccc(F)cc1)C1CCC(CCNC(=O)COCCN(C)S(=O)(=O)c2ccc(F)cc2)CC1 (stereo not drawn) [Example 487],9%,101%
CN(C)C(c1ccc(F)cc1)C1CCC(CNC(=O)COC2CCCN(S(=O)(=O)c3ccccc3)C2)CC1 (stereo not drawn) [Example 488],4%,94%
CN(C)C(c1ccc(F)cc1)C1CCC(CCNC(=O)COCCN(Cc2ccccc2)S(=O)(=O)c2ccccc2)CC1 (stereo not drawn) [Example 489],34%,97%
Cc1cc(C)c(S(=O)(=O)N(C)CCOCC(=O)NC2CCC(C(c3ccc(F)cc3)N(C)C)CC2)c(C)c1 (stereo not drawn) [Example 490],45%,86%
Cc1ccc(S(=O)(=O)N2CCC(OCC(=O)NCCC3CCC(C(c4ccc(F)cc4)N(C)C)CC3)C2)cc1 (stereo not drawn) [Example 491],5%,90%
COc1cc(C)c(S(=O)(=O)N2CCC(OCC(=O)NCCC3CCC(C(c4ccc(Cl)cc4)N(C)C)CC3)C2)c(C)c1 (stereo not drawn) [Example 492],105%,97%
CN(C)C(c1ccc(F)cc1)C1CCC(CCNC(=O)COCCN2CCN(S(=O)(=O)c3ccccc3)CC2)CC1 (stereo not drawn) [Example 493],−13%,96%
COc1cc(C)c(S(=O)(=O)N(CCOCC(=O)NCC2CCC(C(c3ccc(F)cc3)N(C)C)CC2)Cc2ccccc2)c(C)c1 (stereo not drawn) [Example 494],86%,89%
CN(C)C(CCc1ccccc1)C1CCC(CNC(=O)COC2CCN(S(=O)(=O)c3ccc(Cl)cc3Cl)C2)CC1 (stereo not drawn) [Example 496],98%,89%
COc1ccc(S(=O)(=O)N2CCC(OCC(=O)NCC3CCC(C(c4ccc(F)cc4)N(C)C)CC3)C2)cc1OC (stereo not drawn) [Example 497],−4%,86%
COc1cc(C)c(S(=O)(=O)N2CCC(OCC(=O)NCC3CCC(C(c4ccc(Cl)cc4)N(C)C)CC3)CC2)c(C)c1C (stereo not drawn) [Example 498],17%,88%
COc1cc(C)c(S(=O)(=O)N2CCC(CCOCC(=O)NCC3CCC(C(c4ccc(Cl)cc4)N(C)C)CC3)CC2)c(C)c1C (stereo not drawn) [Example 499],25%,75%
